According to patent US20230320956A1, “DIARYLALKANE COMPOUNDS AND COMPOSITIONS FOR USE WITH SKIN AGING AND METHODS OF PRODUCTION THEREOF” (Unigen, Inc., priority 2022, published 2023):

Test system: keratinocytes (Hacat cell line)
Assay: Global gene expression (RNA-seq) in treated keratinocytes
Format: cell-based, human
Conditions: for Fold change (gene expression): 40 μM vs untreated; for Fold Enrichment / Number of Genes Differentially Expressed: 40 μM
Description: To determine specific expression changes dimethoxytolyl propylresorcinol exerted on human keratinocyte aging genes, keratinocytes (Hacat cell line) were treated dimethoxytolyl propylresorcinol at 40 μM and gene expression was analyzed by RNA-seq. Differential gene expression was compared to untreated keratinocytes and cells treated with 40 μM Retinol A to find genes involved in aging. […] Retinol was chosen as a positive control because retinoids have been described as having effective anti-aging and anti-wrinkle effects (Zasada M, 2019). We directly compared the effects of Retinol on keratinocytes with the same concentration of dimethoxytolyl propylresorcinol.

[1] = Gene Cluster Activation of MAPK activity
[2] = Gene Cluster Calcium ion binding
[3] = Gene Cluster Cell-cell signaling
[4] = Gene Cluster Cellular response to lipopolysaccharide
[5] = Gene Cluster Cellular response to retinoic acid
[6] = Gene Cluster Epidermis development
[7] = Gene Cluster Epithelial cell differentiation
[8] = Gene Cluster Extracellular exosome
[9] = Gene Cluster Extracellular matrix organization
[10] = Gene Cluster Extracellular region
[11] = Gene Cluster Extracellular space
[12] = Gene Cluster Growth factor activity
[13] = Gene Cluster Inflammatory response
[14] = Gene Cluster Intermediate filament cytoskeleton organization
[15] = Gene Cluster Negative regulation of ERK1 and ERK2 cascade
[16] = Gene Cluster Negative regulation of cell proliferation
[17] = Gene Cluster Negative regulation of endopeptidase activity
[18] = Gene Cluster Neutrophil chemotaxis
[19] = Gene Cluster O-glycan processing
[20] = Gene Cluster Osteoblast differentiation
[21] = Gene Cluster Positive regulation of angiogenesis
[22] = Gene Cluster Positive regulation of cell migration
[23] = Gene Cluster Positive regulation of cell proliferation
[24] = Gene Cluster Positive regulation of gene expression
[25] = Gene Cluster Positive regulation of smooth muscle cell proliferation
[26] = Gene Cluster Proteinaceous extracellular matrix
[27] = Gene Cluster Transforming growth factor beta receptor binding

CC1=C(/C=C/C(C)=C/C=C/C(C)=C/CO)C(C)(C)CCC1 [Retinol, reference compound]
Fold change (gene expression) (AHR - Aryl hydrocarbon receptor, Oxidative stress): No effect
Fold change (gene expression) (ANGPTL4 - Angiopoietin-like 4, Negative regulation of growth/Angiogenesis): 2.77 fold
Fold change (gene expression) (ANOS1 - Anosmin 1, ECM/Nerve adhesion): 0.55 fold
Fold change (gene expression) (BMP4 - Bone morphogenetic protein 4, Growth): 0.51 fold
Fold change (gene expression) (C3orf33 - Chromosome 3 open reading frame 33, Negative regulation of growth): 2.24 fold
Fold change (gene expression) (CD1D - CD1d molecule, ECM): 0.32 fold
Fold change (gene expression) (CDK5R1 - Cyclin-dependent kinase 5 activator 1, Growth/Skin barrier): No effect
Fold change (gene expression) (CEACAM1 - CEA cell adhesion molecule 1, Cell adhesion): 3.00 fold
Fold change (gene expression) (COL1A1 - Collagen type 1, ECM): No effect
Fold change (gene expression) (COL5A1 - Collagen type V alpha 1 chain, ECM): 0.27 fold
Fold change (gene expression) (CRISPLD2 - Cysteine-rich secretory protein LCCL domain-containing 2, ECM): 1.98 fold
Fold change (gene expression) (CXCL3 - C-X-C motif chemokine ligand 3, Immune signaling): 2.60 fold
Fold change (gene expression) (CYP1A1 - Cytochrome P450 family 1 subfamily A member 1, Drug metabolism): 2.30 fold
Fold change (gene expression) (ECM1 - Extracellular matrix protein 1, ECM): No effect
Fold change (gene expression) (EPHA4 - Ephrin type-A receptor 4, Cell adhesion, cell communication): 0.55 fold
Fold change (gene expression) (EREG - Epiregulin, Growth): No effect
Fold change (gene expression) (FABP5 - Fatty acid binding protein 5, Skin barrier): No effect
Fold change (gene expression) (FGF1 - Fibroblast growth factor 1, Growth): 0.45 fold
Fold change (gene expression) (FGF11 - Fibroblast growth factor 11, Growth): 0.50 fold
Fold change (gene expression) (FLRT2 - Fibronectin leucine-rich transmembrane protein 2, ECM): 0.58 fold
Fold Enrichment [1]: 3.15 fold
Number of Genes Differentially Expressed [1]: 7
Fold Enrichment (Gene Cluster Angiogenesis): 2.37 fold
Number of Genes Differentially Expressed (Gene Cluster Angiogenesis): 11
Fold Enrichment [2]: 2.04 fold
Number of Genes Differentially Expressed [2]: 30
Fold Enrichment (Gene Cluster Cell development): 4.81 fold
Number of Genes Differentially Expressed (Gene Cluster Cell development): 4
Fold Enrichment (Gene Cluster Cell surface): 1.84 fold
Number of Genes Differentially Expressed (Gene Cluster Cell surface): 20
Fold Enrichment [3]: 2.46 fold
Number of Genes Differentially Expressed [3]: 13
Fold Enrichment [4]: 4.26 fold
Number of Genes Differentially Expressed [4]: 10
Fold Enrichment [5]: 4.12 fold
Number of Genes Differentially Expressed [5]: 6
Fold Enrichment [6]: 4.53 fold
Number of Genes Differentially Expressed [6]: 8
Fold Enrichment [7]: 4.81 fold
Number of Genes Differentially Expressed [7]: 7
Fold Enrichment [8]: 1.47 fold
Number of Genes Differentially Expressed [8]: 83
Fold Enrichment [9]: 3.19 fold
Number of Genes Differentially Expressed [9]: 13
Fold Enrichment [10]: 1.73 fold
Number of Genes Differentially Expressed [10]: 56
Fold Enrichment [11]: 2.48 fold
Number of Genes Differentially Expressed [11]: 67
Fold Enrichment [12]: 3.00 fold
Number of Genes Differentially Expressed [12]: 10
Fold Enrichment (Gene Cluster Growth): 6.87 fold
Number of Genes Differentially Expressed (Gene Cluster Growth): 4
Fold Enrichment (Gene Cluster Heparin binding): 4.86 fold
Number of Genes Differentially Expressed (Gene Cluster Heparin binding): 16
Fold Enrichment [13]: 2.54 fold
Number of Genes Differentially Expressed [13]: 20
Fold Enrichment [14]: 9.62 fold
Number of Genes Differentially Expressed [14]: 3
Fold Enrichment [15]: 5.81 fold
Number of Genes Differentially Expressed [15]: 7
Fold Enrichment [16]: 2.43 fold
Number of Genes Differentially Expressed [16]: 20
Fold Enrichment [17]: 2.78 fold
Number of Genes Differentially Expressed [17]: 7
Fold Enrichment [18]: 3.65 fold
Number of Genes Differentially Expressed [18]: 5
Fold Enrichment [19]: 4.00 fold
Number of Genes Differentially Expressed [19]: 5
Fold Enrichment [20]: 3.24 fold
Number of Genes Differentially Expressed [20]: 7
Fold Enrichment [21]: 3.35 fold
Number of Genes Differentially Expressed [21]: 8
Fold Enrichment [22]: 3.40 fold
Number of Genes Differentially Expressed [22]: 13
Fold Enrichment [23]: 1.86 fold
Number of Genes Differentially Expressed [23]: 18
Fold Enrichment [24]: 2.20 fold
Number of Genes Differentially Expressed [24]: 12
Fold Enrichment [25]: 4.81 fold
Number of Genes Differentially Expressed [25]: 6
Fold Enrichment [26]: 4.27 fold
Number of Genes Differentially Expressed [26]: 23
Fold Enrichment (Gene Cluster Response to drug): 2.37 fold
Number of Genes Differentially Expressed (Gene Cluster Response to drug): 15
Fold Enrichment [27]: 5.79 fold
Number of Genes Differentially Expressed [27]: 5
Fold change (gene expression) (HAS2 - hyaluronan synthase 2, ECM): No effect
Fold change (gene expression) (HAS3 - hyaluronan synthase 3, ECM): No effect
Fold change (gene expression) (HBEGF - Heparin-binding EGF-like growth factor, Growth): No effect
Fold change (gene expression) (HIF1A - Hypoxia-inducible factor 1 subunit alpha, Oxidative stress): No effect
Fold change (gene expression) (HMOX1 - Heme oxygenase 1, Oxidative stress): No effect
Fold change (gene expression) (HS3ST1 - Heparan sulfate-glucosamine 3-sulfotransferase 1, ECM): 1.48 fold
Fold change (gene expression) (IL1A - Interleukin 1 alpha, Cytokine signaling): No effect
Fold change (gene expression) (IL1RL1 - Interleukin 1 receptor-like 1, Immune signaling): 3.13 fold
Fold change (gene expression) (ITGA6 - Integrin subunit alpha 6, Cell adhesion): 0.59 fold
Fold change (gene expression) (ITGBL1 - Integrin subunit beta-like 1, Cell adhesion): No effect
Fold change (gene expression) (KIF13A - Kinesin family member 13A, Cytoskeleton/secretion): 0.68 fold
Fold change (gene expression) (LAMA3 - Laminin subunit alpha 3, ECM): No effect
Fold change (gene expression) (LAMC2 - Laminin subunit gamma 2, ECM): 0.71 fold
Fold change (gene expression) (NGF - Nerve growth factor, Growth): No effect
Fold change (gene expression) (NID2 - Nidogen 2 precursor, ECM): 0.79 fold
Fold change (gene expression) (OCLN - Occludin, Skin barrier): No effect
Fold change (gene expression) (OLFM4 - Olfactomedin 4, ECM): 0.28 fold
Fold change (gene expression) (PARP15 - Poly (ADP-Ribose) polymerase family member 15, DNA damage repair/transcription regulation): No effect
Fold change (gene expression) (PI3 - Peptidase inhibitor 3, elastase inhibitor, Elastin genes): No effect
Fold change (gene expression) (PSAPL1 - Prosaposin-like 1, ECM): 0.32 fold
Fold change (gene expression) (PSG5 - Pregnancy specific beta-1-glycoprotein 5, ECM): 0.37 fold
Fold change (gene expression) (PTPRR - Protein tyrosine phosphatase receptor type R, Negative regulation of growth): 2.31 fold
Fold change (gene expression) (RAPGEF3 - Rap guanine nucleotide exchange factor 3, Plasma membrane fusion/cytoskeleton): 1.81 fold
Fold change (gene expression) (SELE - E-Selectin, Cell adhesion): No effect
Fold change (gene expression) (SEMA3D - Semaphorin 3D, ECM/Nerve growth): 0.50 fold
Fold change (gene expression) (SERPINB2 - Serpin family B member 2, Skin barrier): 0.70 fold
Fold change (gene expression) (SERPINB4 - Serpin family B member 4, Skin barrier): No effect
Fold change (gene expression) (SIRT1 - Sirtuin 1, Transcription regulation): No effect
Fold change (gene expression) (SIRT7 - Sirtuin 7, Transcription regulation): No effect
Fold change (gene expression) (SOD2 - Superoxide dismutase 2, Oxidative stress): No effect
Fold change (gene expression) (TFP12 - Tissue factor pathway inhibitor 2, ECM): 2.46 fold
Fold change (gene expression) (TGFB1 - Transforming growth factor beta 1, TGF-β signaling): No effect
Fold change (gene expression) (TLR4 - Toll-like receptor 4, Immune signaling): 2.67 fold
Fold change (gene expression) (TNC - Tenascin C, ECM/Nerve growth): 0.14 fold
Fold change (gene expression) (TP73 - Tumor protein P73, Growth): 0.38 fold
Fold change (gene expression) (TXNRD1 - Thioredoxin reductase 1, Oxidative stress): 1.45 fold
Fold change (gene expression) (UGCG - UDP-glucose ceramide glucosyltransferase, Lipid metabolism and transport): 1.24 fold
Fold change (gene expression) (VIT - Vitrin, ECM): 0.14 fold
